For assay [1], the target named is Tyrosine-protein kinase JAK1 (Homo sapiens, UniProt P23458). Put plainly: In Vitro JAK Kinase Assay: Compounds herein were tested for inhibitory activity of JAK targets according to the following in vitro assay described in Park et al., Analytical Biochemistry 1999, 269, 94-104. The catalytic domains of human JAK1 (a.a. 837-1142), JAK2 (a.a. 828-1132) and JAK3 (a.a. 781-1124) were expressed using baculovirus in insect cells and purified. The catalytic activity of JAK1 ….
Chain of Tyrosine-protein kinase JAK1 (P23458 whole entry, the tested form may be a part): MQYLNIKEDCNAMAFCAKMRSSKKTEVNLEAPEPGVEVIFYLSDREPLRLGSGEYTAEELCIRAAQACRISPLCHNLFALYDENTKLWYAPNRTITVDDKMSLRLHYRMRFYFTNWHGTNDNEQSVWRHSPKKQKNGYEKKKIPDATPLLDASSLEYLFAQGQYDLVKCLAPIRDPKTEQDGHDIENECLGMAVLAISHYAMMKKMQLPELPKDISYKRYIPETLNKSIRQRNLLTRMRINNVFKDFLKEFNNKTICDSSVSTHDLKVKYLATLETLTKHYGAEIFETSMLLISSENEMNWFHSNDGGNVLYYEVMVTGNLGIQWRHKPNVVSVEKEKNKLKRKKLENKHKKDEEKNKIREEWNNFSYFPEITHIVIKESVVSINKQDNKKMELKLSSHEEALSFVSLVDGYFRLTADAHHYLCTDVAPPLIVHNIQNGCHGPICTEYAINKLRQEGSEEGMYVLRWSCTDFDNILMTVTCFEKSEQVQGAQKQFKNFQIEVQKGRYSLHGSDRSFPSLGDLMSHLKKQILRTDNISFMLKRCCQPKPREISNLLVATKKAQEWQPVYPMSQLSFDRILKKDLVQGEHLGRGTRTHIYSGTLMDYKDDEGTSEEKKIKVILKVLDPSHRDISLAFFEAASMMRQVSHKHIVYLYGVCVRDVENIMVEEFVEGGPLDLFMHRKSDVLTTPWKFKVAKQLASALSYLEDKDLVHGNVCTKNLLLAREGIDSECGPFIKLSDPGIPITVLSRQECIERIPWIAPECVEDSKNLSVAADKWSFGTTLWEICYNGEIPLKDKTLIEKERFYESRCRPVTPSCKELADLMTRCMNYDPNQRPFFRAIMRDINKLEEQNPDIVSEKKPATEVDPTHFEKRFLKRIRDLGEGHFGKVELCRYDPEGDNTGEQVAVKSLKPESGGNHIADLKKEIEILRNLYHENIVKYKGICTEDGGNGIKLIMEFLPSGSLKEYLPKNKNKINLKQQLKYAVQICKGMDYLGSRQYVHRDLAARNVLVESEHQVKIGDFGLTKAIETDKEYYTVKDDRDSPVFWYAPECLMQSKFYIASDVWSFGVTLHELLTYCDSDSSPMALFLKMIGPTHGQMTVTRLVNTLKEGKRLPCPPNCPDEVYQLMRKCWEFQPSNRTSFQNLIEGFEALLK

Assay [2] concerns the target Phosphatidylinositol 4,5-bisphosphate 3-kinase catalytic subunit gamma isoform (Homo sapiens, UniProt P48736). The experiment in a line: PI3Kγ (p110γ) Recombinant Human Protein was purchased from Life technology (Grand Island, N.Y.). […] The final concentration of DMSO in the assay was 2%. […] ATP, 13 nM PI3Kγ. […] The final concentration of SPA beads is 1.0 mg/mL.
Assay [3] deals with T1, Phosphatidylinositol 4,5-bisphosphate 3-kinase catalytic subunit delta isoform (Homo sapiens, UniProt O00329).
T1 sequence (O00329 whole entry): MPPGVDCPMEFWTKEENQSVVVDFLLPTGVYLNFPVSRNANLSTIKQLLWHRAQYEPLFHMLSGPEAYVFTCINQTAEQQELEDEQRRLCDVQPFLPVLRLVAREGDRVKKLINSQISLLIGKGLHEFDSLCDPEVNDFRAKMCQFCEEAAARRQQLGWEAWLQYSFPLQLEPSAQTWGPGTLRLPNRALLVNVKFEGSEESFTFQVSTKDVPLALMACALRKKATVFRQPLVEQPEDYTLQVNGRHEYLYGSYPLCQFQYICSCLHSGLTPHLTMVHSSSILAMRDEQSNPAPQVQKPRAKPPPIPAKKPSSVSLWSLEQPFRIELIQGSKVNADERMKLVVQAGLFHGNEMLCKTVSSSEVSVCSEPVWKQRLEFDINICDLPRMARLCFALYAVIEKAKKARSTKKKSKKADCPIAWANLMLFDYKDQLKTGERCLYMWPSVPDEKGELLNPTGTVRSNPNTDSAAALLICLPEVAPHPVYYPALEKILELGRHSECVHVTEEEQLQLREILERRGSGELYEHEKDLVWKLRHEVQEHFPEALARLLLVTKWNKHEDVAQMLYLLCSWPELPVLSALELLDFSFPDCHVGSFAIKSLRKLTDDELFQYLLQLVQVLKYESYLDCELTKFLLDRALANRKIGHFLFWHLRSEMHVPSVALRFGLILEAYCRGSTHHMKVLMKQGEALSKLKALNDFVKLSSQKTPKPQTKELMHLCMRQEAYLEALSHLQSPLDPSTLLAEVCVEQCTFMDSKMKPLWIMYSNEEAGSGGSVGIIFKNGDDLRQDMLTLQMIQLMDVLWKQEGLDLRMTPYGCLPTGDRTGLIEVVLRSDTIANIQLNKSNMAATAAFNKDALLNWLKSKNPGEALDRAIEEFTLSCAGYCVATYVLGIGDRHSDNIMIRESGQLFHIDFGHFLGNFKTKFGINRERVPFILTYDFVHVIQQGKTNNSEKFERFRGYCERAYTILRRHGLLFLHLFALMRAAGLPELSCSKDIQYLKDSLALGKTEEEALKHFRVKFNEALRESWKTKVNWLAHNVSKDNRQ
The experiment in a line: PI3Kδ (p110δ/p85α) Recombinant Human Protein was purchased from Eurofins (St Charles, Mo.). […] The final concentration of DMSO in the assay was 2%. […] ATP, 3.4 nM PI3Kδ. […] The final concentration of SPA beads is 1.0 mg/mL.

Chain of Phosphatidylinositol 4,5-bisphosphate 3-kinase catalytic subunit gamma isoform (P48736 whole entry, canonical isoform): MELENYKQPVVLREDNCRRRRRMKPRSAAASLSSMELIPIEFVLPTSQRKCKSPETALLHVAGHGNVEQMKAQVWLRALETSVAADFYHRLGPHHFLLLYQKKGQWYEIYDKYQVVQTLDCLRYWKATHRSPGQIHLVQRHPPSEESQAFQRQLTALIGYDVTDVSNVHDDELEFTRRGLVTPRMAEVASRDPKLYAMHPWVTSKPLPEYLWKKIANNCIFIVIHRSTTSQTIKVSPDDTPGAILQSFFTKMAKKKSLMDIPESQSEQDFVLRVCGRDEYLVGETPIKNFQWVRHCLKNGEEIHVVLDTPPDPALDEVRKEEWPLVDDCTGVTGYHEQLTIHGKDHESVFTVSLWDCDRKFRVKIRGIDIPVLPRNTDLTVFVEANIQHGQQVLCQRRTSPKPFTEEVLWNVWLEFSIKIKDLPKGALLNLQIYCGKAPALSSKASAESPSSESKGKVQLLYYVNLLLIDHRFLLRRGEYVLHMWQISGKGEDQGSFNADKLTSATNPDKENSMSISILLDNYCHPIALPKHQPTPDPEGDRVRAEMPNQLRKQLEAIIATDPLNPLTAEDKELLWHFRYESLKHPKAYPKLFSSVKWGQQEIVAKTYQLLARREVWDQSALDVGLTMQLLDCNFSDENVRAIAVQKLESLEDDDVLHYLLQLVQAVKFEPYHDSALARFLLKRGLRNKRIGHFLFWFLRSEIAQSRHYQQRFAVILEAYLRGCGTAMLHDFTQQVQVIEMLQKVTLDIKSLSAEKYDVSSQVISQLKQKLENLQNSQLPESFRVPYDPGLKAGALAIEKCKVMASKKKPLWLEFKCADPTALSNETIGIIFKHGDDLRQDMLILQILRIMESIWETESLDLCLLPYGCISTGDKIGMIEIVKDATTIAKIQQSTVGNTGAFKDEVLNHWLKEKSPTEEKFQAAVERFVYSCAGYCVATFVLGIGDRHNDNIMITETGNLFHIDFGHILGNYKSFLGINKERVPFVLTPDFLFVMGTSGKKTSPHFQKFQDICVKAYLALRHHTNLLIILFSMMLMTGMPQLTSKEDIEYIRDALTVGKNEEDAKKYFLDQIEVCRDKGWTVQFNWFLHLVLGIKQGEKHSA

Regarding `N#CCC1(n2cc(-c3ncnc4[nH]ccc34)cn2)CN(C2CCN(C(=O)Nc3ccc(F)cc3C(F)(F)F)CC2)C1`, in assay [1], the half-inhibitory concentration (IC50) was under 100 nM.
The compound `N#CCC1(n2cc(-c3ncnc4[nH]ccc34)cn2)CN(C2CCN(C(=O)c3ccnc(C(F)(F)F)n3)CC2)C1` came in with an IC50 in assay [1] of under 100 nM.
In the case of `N#CC[C@]1(n2cc(-c3ncnc4[nH]ccc34)cn2)C[C@H](N2CCC(Oc3cc(CN4CC(O)C4)cc(C(F)(F)F)n3)CC2)C1`, the IC50 in assay [1] was under 100 nM.
With `N#CCC(C1CCN(c2nc3cccnc3o2)C1)n1cc(-c2ncnc3[nH]ccc23)cn1` (centres undefined), the IC50 in assay [1] is under 100 nM.
Still for that read-out and setting: with `N#CC[C@]1(n2cc(-c3ncnc4[nH]ccc34)cn2)C[C@H](N2CCN(C(=O)c3ccnc(C(F)(F)F)n3)CC2)C1` the figure was under 100 nM; with `CCNCc1cc(O[C@H]2CC[C@@H](N3CC(CC#N)(n4cc(-c5ncnc6[nH]ccc56)cn4)C3)CC2)nc(C(F)(F)F)c1`, under 100 nM.
Take `CC(NC(=O)c1c(N)nn2cccnc12)c1cc(Cl)c2cn(CC(=O)N3CCOCC3)nc2c1-c1ccccc1` (centres undefined): the IC50 in assay [2] and in assay [3] was under 500 nM in each case.
The compound `N#CC[C@]1(n2cc(-c3ncnc4[nH]ccc34)cn2)C[C@H](N2CCC(Oc3cc(CN4CCC[C@@H]4CO)cc(C(F)(F)F)n3)CC2)C1` yielded an IC50 in assay [1] of under 100 nM.
Compound `N#CCC(CN1CCN(C(=O)c2ccc(C#N)cc2F)CC1)n1ccc(-c2ncnc3[nH]ccc23)c1` (centres undefined) returned an IC50 in assay [1] of under 100 nM.
As for `CC(NC(=O)c1c(N)nn2cccnc12)c1cc(Cl)c2cnn(CCN3CCOCC3)c2c1-c1ccccc1` (centres undefined), the IC50 in assay [2] and in assay [3] was under 100 nM in each case.
In the case of `CCOc1c(C(C)NC(=O)c2c(N)nn3cccnc23)cc(Cl)c2cn(C)nc12` (centres undefined), the IC50 in assay [2] and in assay [3] was under 500 nM throughout.
For `Cc1cc(C(C)NC(=O)c2c(N)nn3cccnc23)c(-c2ccccc2)c2[nH]nc(C)c12` (centres undefined), the figures for the IC50 in assay [2] and in assay [3] were under 500 nM and under 2000 nM, respectively.
In turn, `N#CCC1(n2cc(-c3ncnc4[nH]ccc34)cn2)CN([C@H]2CC[C@@H](Oc3cc(CCO)nc(C(F)(F)F)n3)CC2)C1` displayed a 50% inhibitory concentration (IC50) in assay [1] of under 100 nM.
In turn, `N#CC[C@]1(n2cc(-c3ncnc4[nH]ccc34)cn2)C[C@H](N2CCC(Oc3cc(CCO)cc(C(F)(F)F)n3)CC2)C1` had an IC50 in assay [1] of under 100 nM.
Regarding `CC(C)(O)c1cc(O[C@H]2CC[C@@H](N3CC(CC#N)(n4cc(-c5ncnc6[nH]ccc56)cn4)C3)CC2)nc(C(F)(F)F)c1`, the IC50 in assay [1] was under 100 nM.
As to `CC(NC(=O)c1c(N)nn2cccnc12)c1cc(Cl)c2c(Br)n[nH]c2c1-c1ccccc1` (centres undefined), the IC50 in assay [2] was under 100 nM; in assay [3], under 2000 nM.
`CC(NC(=O)c1c(N)nn2cccnc12)c1cc(C#N)c2cncn2c1-c1ccccc1` (centres undefined): the IC50 in assay [2] and in assay [3] was under 500 nM in each case.
On to `CC(NC(=O)c1c(N)nn2cccnc12)c1cc(Cl)c2cn(Cc3ccn(C)n3)nc2c1-c1ccccc1` (centres undefined), for which the IC50 in assay [2] was under 500 nM; in assay [3], under 2000 nM.
Regarding `Cc1ncc2c(Cl)cc(C(C)NC(=O)c3c(N)nn4cccnc34)c(-c3cccc(F)c3)n12` (centres undefined), the IC50 in assay [2] and in assay [3] was under 100 nM in each case.
Compound `C[C@@H](CO)NCc1cc(OC2CCN([C@H]3C[C@](CC#N)(n4cc(-c5ncnc6[nH]ccc56)cn4)C3)CC2)nc(C(F)(F)F)c1` came in with an IC50 in assay [1] of under 100 nM.
As for `CC(NC(=O)c1c(N)nn2cccnc12)c1cc(Cl)c2cn[nH]c2c1-c1ccccc1` (centres undefined), the IC50 in assay [2] was under 100 nM; in assay [3] it was under 500 nM.
Regarding `C[C@@H](O)c1nc2cnc3ccsc3c2n1[C@H]1CC[C@H](CC#N)OC1`, the concentration for half-maximal inhibition (IC50) in assay [1] was under 500 nM.
With `Cc1n[nH]c2c(-c3ccccc3)c(C(C)NC(=O)c3c(N)nn4cccnc34)cc(Cl)c12` (centres undefined), the 50% inhibitory concentration (IC50) in assay [2] is under 100 nM; in assay [3] it was under 500 nM.
`Cc1cc(C(C)NC(=O)c2c(N)nn3cccnc23)c(-c2cccc(F)c2)n2c(C)ncc12` (centres undefined): the IC50 in assay [2] is under 100 nM; in assay [3], under 2000 nM.
Taken in the same sequence, the figures for `CCCC(NC(=O)c1c(N)nn2cccnc12)c1cc(Cl)c2cncn2c1N1CCS(=O)(=O)CC1` (centres undefined) were under 100 nM and under 100 nM.
Consider `CC(NC(=O)c1c(N)nn2cccnc12)c1cc(Cl)c2cncn2c1-c1ccccc1` (centres undefined), for which the 50% inhibitory concentration (IC50) in assay [2] and in assay [3] was under 100 nM throughout.
Compound `C[C@@H](O)CNCc1cc(OC2CCN([C@H]3C[C@](CC#N)(n4cc(-c5ncnc6[nH]ccc56)cn4)C3)CC2)nc(C(F)(F)F)c1` had an IC50 in assay [1] of under 100 nM.
Regarding `C[C@H](NC(=O)c1cc(F)c(N2CC(CC#N)(n3cc(-c4ncnc5[nH]ccc45)cn3)C2)cc1F)C(F)(F)F`, in assay [1], the IC50 was under 100 nM.
For the compound `CCOc1c(C(C)NC(=O)c2c(N)nn3cccnc23)cc(Cl)c2cnn(C)c12` (centres undefined), the half-inhibitory concentration (IC50) in assay [2] and in assay [3] was under 100 nM in each case.
Turning to `N#CC[C@]1(n2cc(-c3ncnc4[nH]ccc34)cn2)C[C@H](N2CCC(Oc3cc(CN4CCC[C@H]4CO)cc(C(F)(F)F)n3)CC2)C1`, in assay [1], the IC50 was under 100 nM.
In assay [1], `N#CCC1(n2cc(-c3ncnc4[nH]ccc34)cn2)CN([C@H]2CC[C@@H](Oc3cc(CN4CC[C@@H](O)C4)cc(C(F)(F)F)n3)CC2)C1` returned an IC50 of under 100 nM.
With `CCOc1c(C(C)NC(=O)c2c(N)nn3cccnc23)cc(Cl)c2cn(CC)nc12` (centres undefined), the IC50 in assay [2] is under 500 nM; in assay [3], under 2000 nM.
In turn, `N#CCC1(n2cc(-c3ncnc4[nH]ccc34)cn2)CN([C@H]2CC[C@@H](Oc3cc(CN4CC[C@H](O)C4)cc(C(F)(F)F)n3)CC2)C1` (single isomer, unassigned) registered an IC50 in assay [1] of under 100 nM.
As for `N#CCC1(n2cc(-c3ncnc4[nH]ccc34)cn2)CN(C2CCN(C(=O)c3ccnc(C(F)(F)F)c3F)CC2)C1` [ITACITINIB], the IC50 in assay [1] was under 100 nM.
